A word on the melting point: it is the temperature, or range, at which the solid turns liquid.

The molecule `COc1cccc(N(C(=O)c2ccc(-c3cccc(C)c3)s2)C2CC2)c1` had a melting point of 68 °C.

`COc1cc(C)c(CCCCCCCCCC(=O)CCCCCCCCCCCC(=O)O)c(O)c1OC` had a melting point of 63 to 64 °C.

In the case of `CS(=O)(=O)c1ccc(C2=C(c3ccccc3)C(=O)C2(Cl)Cl)cc1`, the melting point was 124 to 125 °C.

Molecule `Cc1ccc(S(=O)(=O)NC[C@@H]2C[C@@H](S)CN2S(=O)(=O)c2ccc3ccccc3c2)cc1` displayed a melting point of 175 °C.

`CCN(C(=O)C1CC1)c1cn(-c2cccnc2)nc1Cl` showed a melting point of 111 to 119 °C.

As to `COC(=O)c1cccc([N+](=O)[O-])c1Nc1cccc2[nH]ncc12`, the melting point lay within 152 to 154 °C.

As to `Cc1nc(C)n(-c2cc(C)c3[nH]c(=O)ccc3c2)c1Br`, the melting point came to 273 °C.

In turn, `CS(=O)(=O)c1ccc(-c2cc(C(=O)CCCO[N+](=O)[O-])nn2-c2ccc(F)cc2)cc1` gave a melting point of 134 to 136 °C.

As to `OCc1ccc(-c2cccc3cncn23)cc1`, the melting point is 137 to 138 °C.

In turn, `CCCCc1ncc(C=C2C(=O)N(CC(=O)OCC)c3ccccc32)n1Cc1ccc(C(=O)OC)cc1` gave a melting point of 118 to 119 °C.

Regarding `COc1ccc(C2(C#N)CCC(=O)CC2)c2c1OC(C)(C)O2`, the melting point fell in the range of 153 to 154 °C.

`CS(=O)c1cnc2ccsc2c1O` (stereo unspecified) showed a melting point of 271 to 273 °C.

`O=C(OCc1ccc(Br)cc1)C1C(=O)OC2CC(=O)N21` (stereo unspecified): the melting point stood at 106 °C.

Molecule `Cc1cc(C)nc(NC(=O)C(N)CC(C)C)c1` (stereo unspecified) returned a melting point of 78 °C.

For the molecule `COC(=S)NC[C@H]1CN(c2ccc(-c3nc(Cn4cccn4)cs3)c(F)c2)C(=O)O1`, the melting point was 157 to 158 °C.

`O=C(O)c1cc(C(=O)C(F)(F)F)cc2c1OC(c1ccccc1)(c1ccccc1)O2` gave a melting point of 187 °C.

In turn, `CCCCOC(=O)[C@H]1CN(c2ccc3c(c2)oc(=O)n3CC)C(=O)O1` came in with a melting point of 155 to 157 °C.

In the case of `O=C(Nc1ccc2[nH]c(=O)n(CCCCN3CC=C(c4ccccc4)CC3)c(=O)c2c1)C(F)(F)F`, the melting point amounted to 245 °C.

Molecule `COC(=O)C12COc3ccccc3C1NN(C(=O)Nc1ccc(C(F)(F)F)cc1)C2` (stereo unspecified) came in with a melting point of 211 to 212 °C.

As to `O=C(O)C(Cl)C(=O)CCl` (stereo unspecified), the melting point lay within 53 to 54 °C.

In turn, `C=CCOC(=O)C(CCn1c(=O)c2c(ncn2C)n(C)c1=O)N(C)S(=O)(=O)c1ccc(Oc2ccccc2)cc1` (stereo unspecified) gave a melting point of 207 to 209 °C.

Take `CCCCOP(=O)(OCCCC)C(Sc1cc(F)ccc1O)=P(OCCCC)(OCCCC)OCCCC`: the melting point lay within 165 to 166 °C.

For `Clc1cc2nc(Cl)c(N3CCNCC3)nc2cc1Cl`, the melting point is more than 300 °C.

As to `CC(=O)Nc1ccc(OC(C)=O)c(C(=O)Nc2cccc3[nH]ccc23)c1`, the melting point stood at 263 °C.

In the case of `COc1cc2nc(C)c3c4cc5c(cc4ccc3c2cc1OC)OCO5`, the melting point was more than 250 °C.

With `CC(=O)c1cccc2nc(SCCCN3CCCN(CC(=O)Nc4c(C(C)C)cccc4C(C)C)CC3)oc12`, the melting point lay within 86 to 88 °C.

In the case of `CC1CNc2c(ccc(NC3=NCCN3)c2Br)N1` (single isomer, unassigned; (+)), the melting point was in the range of 203 to 205 °C.

`COc1ccc(C(=O)Nc2ccccc2)cc1NCc1ccc(N(C)C)cc1` showed a melting point of 195 to 197 °C.

`CN1CC=C(c2c[nH]c3ccc(-c4cnc5[nH]cc(C(=O)C(C)(C)C)c5n4)cc23)CC1` returned a melting point of 263 to 265 °C.

`Cc1c(NC(=O)c2cccnc2NCc2ccc(=O)[nH]c2)cccc1C(F)(F)F` came in with a melting point of 196 to 201 °C.

Molecule `O=C(c1cc([N+](=O)[O-])ccc1Cl)c1sccc1Cl` yielded a melting point of 114 to 116 °C.

`CCCCOC(=O)S(=O)(=O)Nc1sc(CC(C)C)cc1-c1ccc(Cn2c(-c3ccccc3)nc(OC)c2C=O)c(Cl)c1` displayed a melting point of 58 °C.

The molecule `O=C(O)c1cnn(-c2nc(-c3cccc(C(F)(F)F)c3)cs2)c1` came in with a melting point of 229 to 230 °C.

For `CCc1cc(C2(c3ccc(F)c(-c4cnccc4F)c3)N=C(N)N(C)C2=O)cc(CC)n1` (stereo unspecified), the melting point fell in the range of 92 to 100 °C.

For the molecule `Cc1cc(C(=O)NC(CCC(=O)OC(C)(C)C)C(=O)O)ccc1-c1c2cc(F)c(=O)cc-2oc2cc(O)c(F)cc12` (stereo unspecified), the melting point was 134 to 138 °C.

Take `CCOC(=O)NC(=O)P(=O)(OCC)OCC`: the melting point lay within 57 to 64 °C.

`CC(=O)Oc1ccc2c(C)cc(=O)oc2c1CC(Br)CBr` (stereo unspecified) came in with a melting point of 145 to 148 °C.

Take `Cn1c(CO)ccc1S(=O)(=O)N1CCC(CCO)(Sc2cc(C(C)(C)C)c(O)c(C(C)(C)C)c2)CC1`: the melting point lay within 126 to 127 °C.

For the molecule `NC(=O)N(O)CCNC(=O)c1csc(-c2ccccc2)n1`, the melting point lay in the range of 188 to 192 °C.

Take `CCOC(=O)c1cn(Cc2ccccc2)nc1OCc1ccccc1`: the melting point fell in the range of 71 to 72 °C.

Molecule `Cc1cccnc1NC(=O)OC(C)(C)C` registered a melting point of 132 to 133 °C.

As to `C/C(=C(\C#N)C(N)=S)N1CCCN(c2ccccc2C)CC1`, the melting point lay within 99 to 100 °C.

Molecule `COC(=O)COc1ccc(O)c(C(C)(C)C)c1` came in with a melting point of 87 to 89 °C.

Molecule `CN(C)c1ccc(C2(c3ccc(N(C)C)cc3N(C)C)OC(=O)c3ccccc32)cc1` (stereo unspecified) gave a melting point of 190 to 194 °C.

The molecule `CC(=O)Oc1c2c(c3ccccc3c1OC(C)=O)N(C(C)=O)c1ccccc1S2` displayed a melting point of 213 to 214 °C.

In the case of `O=C1N=C(c2ccccc2OCC(F)(F)F)N=C2N=CN=C12`, the melting point was 261 to 263 °C.

`Cc1ccc(C)c(OCc2ccccc2C(Cl)Cl)c1` gave a melting point of 62 to 65 °C.

`O=C1NC(=O)c2nc3ccccc3cc21` had a melting point of more than 300 °C.

`c1ccc(-c2ccc(-n3cccc3)cc2)cc1` gave a melting point of 190 to 192 °C.

`COC(=O)Cc1cn(-c2ccccc2)nc1OCc1ccc(OCc2nc(-c3ccccc3)oc2C)c(OC)c1` displayed a melting point of 107 to 108 °C.

In turn, `CC(OCCO)n1cc(F)c(=O)[nH]c1=O` (stereo unspecified) gave a melting point of 118 to 120 °C.

`CCCCc1nn(-c2ccc(C(F)(F)F)cn2)cc1C(=O)OCC` registered a melting point of 58 to 59 °C.

`CCCCCCCCN(SN(C(=O)NC(=O)c1ccccc1[N+](=O)[O-])c1ccc(Oc2ncc(Br)cn2)c(Cl)c1)C(=O)OC` yielded a melting point of 51 to 54 °C.

The molecule `CN(C)Cc1ccc(CSCCNC(=N)N[N+](=O)[O-])o1` registered a melting point of 103 to 104 °C.

Turning to `COc1cc(C(=O)c2cccs2)cc(OC)c1OC`, the melting point is 83 °C.

`COc1cc(-c2ccc(O)c(C3(C)CCCCC3)c2)cc(CC2SC(N3CCOCC3)=NC2=O)c1O` (stereo unspecified) returned a melting point of 221 to 223 °C.

For the molecule `CC(O)C(=O)c1ccc(C(=O)Nc2ccccc2N)c(N)c1` (stereo unspecified), the melting point worked out at 198 °C.

Regarding `CSCC(C)(C)NC(=O)c1c(NC(=O)c2cc(C(F)(F)F)nn2-c2ncccc2Cl)ccc2cn[nH]c12`, the melting point was 100 to 105 °C.

`Cc1cc(C)n(-c2nc(-c3ccc(Cl)cc3)c(CCCOc3ccccc3C)o2)n1`: the melting point was 103 to 104 °C.

As to `CCOC(=O)c1csc(-c2cc3cccc(NS(=O)(=O)c4cccs4)c3[nH]2)n1`, the melting point was in the range of 240 to 241 °C.

Turning to `N#CN=C(Nc1cccnc1)NC(NC(=O)c1ccc(Cl)cc1)C12CC3CC(CC(C3)C1)C2` (stereo unspecified), the melting point lay within 209 to 210 °C.

The values are drawn from a melting point compilation (Tetko et al.; mined from patent text by program, amines drawn as free bases though some values may be those of a salt).
